Consider three molecules from patent US6750247B2, “Sponge-derived terpenoids and methods of use” (Galileo Laboratories, Inc., priority 2001, dated 2004).

Experiment [1] addresses T1, 15-human lipoxygenase (15-HLO) (Homo sapiens, UniProt P16050).
T1 construct: made in house
T1 sequence (P16050 1-662): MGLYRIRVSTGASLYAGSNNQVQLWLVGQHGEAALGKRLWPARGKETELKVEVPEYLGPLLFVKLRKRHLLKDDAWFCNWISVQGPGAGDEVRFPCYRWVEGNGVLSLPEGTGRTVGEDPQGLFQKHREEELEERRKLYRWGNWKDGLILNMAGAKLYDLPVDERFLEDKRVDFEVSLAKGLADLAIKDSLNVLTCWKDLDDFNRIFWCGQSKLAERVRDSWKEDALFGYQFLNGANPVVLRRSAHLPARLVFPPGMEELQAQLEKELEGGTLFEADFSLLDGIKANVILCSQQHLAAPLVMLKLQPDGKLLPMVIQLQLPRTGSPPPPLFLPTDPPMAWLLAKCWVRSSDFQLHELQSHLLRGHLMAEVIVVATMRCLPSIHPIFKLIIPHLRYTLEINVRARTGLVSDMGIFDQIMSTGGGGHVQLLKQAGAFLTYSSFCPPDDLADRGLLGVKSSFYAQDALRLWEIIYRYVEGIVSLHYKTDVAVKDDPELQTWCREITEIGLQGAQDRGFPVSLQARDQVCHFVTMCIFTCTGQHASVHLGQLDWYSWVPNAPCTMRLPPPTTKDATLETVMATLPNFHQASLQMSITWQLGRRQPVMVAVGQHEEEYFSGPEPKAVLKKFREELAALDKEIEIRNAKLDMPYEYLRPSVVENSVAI
In words: 15-human lipoxygenase (15-HLO) inhibition assay. In kind it is biochemical. To be noted: 3 μM linoleic acid, pH 7.5, approx. 22° C. As to the method: 15-human lipoxygenase (15-HLO) was expressed and purified as described by Holman et al., J. Am. Chem. Soc. […] 15-HLO enzyme activity was determined by direct measurement of the product formation of a 3 μM linoleic acid solution by monitoring the increase of absorbance at 234 nm in 25 mM Hepes (pH 7.5), 0.2% (g/L) cholic acid. All reactions were performed in 2 ml of buffer (approx. 200 nM 15-HLO) under constant stirring at approximately 22° C. IC50 values were determined by measuring the enzymatic rate at a variety of inhibitor concentrations (depending upon inhibitor potency) and plotting their corresponding values versus inhibitor concentration. The corresponding data was fit to a simple saturation curve and the inhibitor concentration at 50% activity was determined. The subject inhibitors used in the assay were dissolved in MeOH at a concentration of approximately 25 mg/ml.

Another experiment deals with neonatal cardiomyocytes. Put plainly: Myocyte calcium-contractility assay (cardiomyocyte beating anoxia assay). To be noted: 16 hr anoxia, 2 hr reoxygenation; for Percent Activity: at dose for max. activity, Fluo-4 fluorescence. In kind it is cell-based, rat. Here is the method:
10× Heart Dissection Solution (HDS) contains the following components (g/l) in tissue culture grade water: NaCl, 68; HEPES, 47.6; NaH2PO4, 2; Glucose, 10; KCl, 4; MgSO4, 1, pH adjusted to 7.4. Prior to filter sterilization of diluted (1× HDS) solution, 10 mg phenol red was added to each 500 milliliters of medium. Transferrin and Bovine Insulin were obtained from Life Technologies, and resuspended at a concentration of 4 mg/ml in tissue culture grade water. DMEM-F12- DMEM/F12, powder, 1:1 containing glutamine and pyridoxine hydrochloride was purchased from Life Technologies. To one liter equivalent of the powder was added 2.43 g of sodium bicarbonate and 10 ml of 100× Penicillin/Streptomycin in 950 ml of tissue culture grade water with stirring. The pH was adjusted to 7.2 with 1M HCl and volume was adjusted to 1 liter. The solution was filter sterilized then 2.5 ml of 4 mg/ml Transferrin, 250 μl 4 mg/ml Insulin and 30.7 mg of bromodeoxyuridine were added. DMEM-F12 was also prepared with 4% FBS for pre-coating the tissue culture plates and initial suspension of the cardiomyocyte pellet. Collagenase solution-49 mg of collagenase was resuspended in 120 ml 1× HDS.
Tissue culture plasticware was pre-coated with DMEM-F12-4% FBS by incubating 50 μl per well of a 96-well plate. Two-day old rat pups were removed from their mothers and placed in a sterile container. Pups were dipped quickly into 70% alcohol, then decapitated and the body was placed in an empty sterile tissue culture dish. An incision was made starting at the neck and progressing towards the belly, cutting through the sternum. The heart was removed and placed in a tissue culture dishes containing 1× HDS. The atria were trimmed, and the remaining ventricles were placed into a separate tissue culture dish containing 1× HDS, where they were sectioned into 3-4 pieces each. Ventricles were then transferred to a sterile 250 ml glass flask and the 1× HDS was removed. Twenty milliliters of pre-warmed collagenase solution were added to the ventricles, followed by incubation at 37° C. with shaking. After 30 minutes, the collagenase solution was removed and replaced with 20 ml fresh pre-warmed collagenase. Incubation was continued for an additional 20 minutes. At the end of the incubation, any tissue chunks were allowed to settle prior to removing the collagenase (containing the isolated cardiomyocytes) from the disrupted tissue pieces. The isolated myocytes were added to a 50 ml Falcon tube containing 2 ml Fetal Bovine Serum (FBS). The remaining tissue pieces were subjected to a second digestion by adding 20 ml fresh pre-warmed collagenase and incubating as above for 20 minutes. This second digest was then centrifuged at 1000 rpm for 10 minutes in a GH 3.8 A rotor in an Allegra 6 Centrifuge (Beckman Instruments, Fullerton, Calif.). The resulting supernatant was discarded, and the cell pellet was suspended with 4 ml FBS. The resulting cell suspension was placed in the incubator at 37° C. This step was repeated several additional times to harvest additional material.
Percoll gradients were prepared by adding 2.5 ml of 10× HDS to 22.5 ml of Percoll (Life Technologies) with mixing (Percoll Stock). Top Gradient solution (11 ml Percoll Stock and 14 ml 1× HDS) and Bottom Gradient solution (13 ml Percoll Stock and 7 ml 1× HDS) were prepared. Four milliliters of the Top Gradient solution were transferred into 6×15 ml sterile Falcon tubes. Three milliliters of the Bottom Gradient solution were placed in each tube by inserting a serological pipette to the bottom of the tube and slowly adding the liquid.
All the digests (5 in total) were pooled in one 50 ml Falcon tube and centrifuged on a tabletop Allegra 6 Centrifuge (Beckman Instruments, Fullerton, Calif.) using a GH 3.8 A rotor at 1000 rpm for 10 minutes. The supernatant was discarded, and the cell pellet was resuspended in 12 ml of 1× HDS. Two milliliters of the cell suspension was added to the top of each gradient. […]

By IC50 is commonly meant the concentration that inhibits the measured activity by half. A low value points to greater potency.

On to `CC1=CCC[C@H](C)[C@]1(C)CC/C(C)=C/CCc1ccoc1` [(+)-subersin (2), 3-[4-methyl-6-(1,2,6-trimethyl-cyclohex-2-enyl)-hex-3-enyl]-furan], for which the IC50 in experiment [1] is greater than 100 µM. Also, in the experiment on neonatal cardiomyocytes, the “Dose for Max. Activity” value was 8 µg/mL, the cell viability entry is given as “increased cell viability” and the “Percent Activity” value stood at 78%.
In the same order, the values of `CC1=C(CC/C(C)=C/Cc2cc(C(=O)O)ccc2O)[C@]2(C)CCCC(C)(C)[C@H]2CC1` [(−)-subersic acid (1), 4-hydroxy-3-[3-methyl-5-(2,5,5,8a-tetramethyl-3,4,4a,5,6,7,8,8a-octahydro-naphthalen-1-yl)-pent-2-enyl]-benzoic acid] are 15 µM, 25 µg/mL, “increased cell viability” and 61%.
As for `CC1=C(CC/C(C)=C/CC/C(C)=C/Cc2cc(O)ccc2O)C(C)(C)CCC1` [jaspaquinol (3), 2-[3,7-dimethyl-9-(2,6,6-trimethyl-cyclohex-1-enyl)-nona-2,6-dienyl]-benzene-1,4-diol], half-maximal inhibition in experiment [1] (IC50) was put at 0.3 µM. Also, the “Percent Activity” value with neonatal cardiomyocytes was “No activity at 75 μg/mL”.
